The results in this text go back to ChEMBL document CHEMBL2331280, “Cytotoxic, antitopoisomerase IIα, and anti-HIV-1 activities of triterpenoids isolated from leaves and twigs of Gardenia carinata” (J Nat Prod, 2013).

A short description of data set [1]: Selectivity index, ratio of IC50 for human 1A2 cells to EC50 for deltaTat/rev deffective HIV-1 MC99 infected in human 1A2 cells. It counts as toxicity, cell-based. As to conditions: read-out: Ratio IC50/EC50.
For a further data set, the system named is Lu1. The data set is described as follows: Cytotoxicity against human Lu1 cells after 72 hrs by sulforhodamine B assay. As to conditions: Lu1, 72 h, read-out: ED50 (the source's name). It counts as functional.
Another data set deals with HEK293. The experiment in a line: Cytotoxicity against human HEK293 cells after 72 hrs by sulforhodamine B assay. It is filed as functional. As to conditions: HEK293, 72 h, read-out: ED50 (the source's name).
For a further data set, the system named is P388. The data set is described as follows: Cytotoxicity against mouse P388 cells after 48 hrs by sulforhodamine B assay. It is filed as functional. As to conditions: P388, 48 h, read-out: ED50 (the source's name).
Data set [2] is described as follows: Cytotoxicity against rat ASK cells after 72 hrs by sulforhodamine B assay. It is filed as functional. As to conditions: read-out: ED50 (the source's name).
The target of data set [3] is Human immunodeficiency virus type 1 reverse transcriptase (Human immunodeficiency virus 1) (UniProt Q72547). The data set is described as follows: Inhibition of HIV-1 reverse transcriptase assessed as decrease in incorporation of [3H]TTP into polyA template at 200 ug/ml.
Another data set has as its system Col2. The data set is described as follows: Cytotoxicity against human Col2 cells after 72 hrs by sulforhodamine B assay. As to conditions: Col2, 72 h, read-out: ED50 (the source's name). It is filed as functional.
Data set [4] can be described thus: Cytotoxicity against human 1A2 cells assessed as inhibition of metabolic activity by XTT assay. It counts as ADME, cell-based.
Data set [5] concerns the target Human immunodeficiency virus type 1 reverse transcriptase (Human immunodeficiency virus 1, UniProt Q72547). The data set is described as follows: Inhibition of HIV-1 reverse transcriptase assessed as decrease in incorporation of [3H]TTP into polyA template.
For data set [6], the system named is Human immunodeficiency virus 1. The experiment in a line: Antiviral activity against deltaTat/rev deffective HIV-1 MC99 infected in human 1A2 cells assessed as inhibition of syncytia formation after 3 days. As to conditions: Human immunodeficiency virus 1, MC99, 1A2, 72 h. It is filed as functional, organism-based.
A further data set concerns MCF7. The data set is described as follows: Cytotoxicity against human MCF7 cells after 72 hrs by sulforhodamine B assay. It is filed as functional. As to conditions: MCF7, 72 h, read-out: ED50 (the source's name).
Another data set has as its system KB. The experiment in a line: Cytotoxicity against human KB cells after 72 hrs by sulforhodamine B assay. It is filed as functional. As to conditions: read-out: ED50 (the source's name).
Data set [7] deals with DNA topoisomerase 2-alpha (Homo sapiens) (UniProt P11388). The experiment in a line: Inhibition of human DNA topoisomerase 2 alpha-mediated supercoiled pBR322 DNA relaxation at 20 uM after 1 hr by agarose gel electrophoresis.
Chain of DNA topoisomerase 2-alpha (Homo sapiens) (P11388 whole entry): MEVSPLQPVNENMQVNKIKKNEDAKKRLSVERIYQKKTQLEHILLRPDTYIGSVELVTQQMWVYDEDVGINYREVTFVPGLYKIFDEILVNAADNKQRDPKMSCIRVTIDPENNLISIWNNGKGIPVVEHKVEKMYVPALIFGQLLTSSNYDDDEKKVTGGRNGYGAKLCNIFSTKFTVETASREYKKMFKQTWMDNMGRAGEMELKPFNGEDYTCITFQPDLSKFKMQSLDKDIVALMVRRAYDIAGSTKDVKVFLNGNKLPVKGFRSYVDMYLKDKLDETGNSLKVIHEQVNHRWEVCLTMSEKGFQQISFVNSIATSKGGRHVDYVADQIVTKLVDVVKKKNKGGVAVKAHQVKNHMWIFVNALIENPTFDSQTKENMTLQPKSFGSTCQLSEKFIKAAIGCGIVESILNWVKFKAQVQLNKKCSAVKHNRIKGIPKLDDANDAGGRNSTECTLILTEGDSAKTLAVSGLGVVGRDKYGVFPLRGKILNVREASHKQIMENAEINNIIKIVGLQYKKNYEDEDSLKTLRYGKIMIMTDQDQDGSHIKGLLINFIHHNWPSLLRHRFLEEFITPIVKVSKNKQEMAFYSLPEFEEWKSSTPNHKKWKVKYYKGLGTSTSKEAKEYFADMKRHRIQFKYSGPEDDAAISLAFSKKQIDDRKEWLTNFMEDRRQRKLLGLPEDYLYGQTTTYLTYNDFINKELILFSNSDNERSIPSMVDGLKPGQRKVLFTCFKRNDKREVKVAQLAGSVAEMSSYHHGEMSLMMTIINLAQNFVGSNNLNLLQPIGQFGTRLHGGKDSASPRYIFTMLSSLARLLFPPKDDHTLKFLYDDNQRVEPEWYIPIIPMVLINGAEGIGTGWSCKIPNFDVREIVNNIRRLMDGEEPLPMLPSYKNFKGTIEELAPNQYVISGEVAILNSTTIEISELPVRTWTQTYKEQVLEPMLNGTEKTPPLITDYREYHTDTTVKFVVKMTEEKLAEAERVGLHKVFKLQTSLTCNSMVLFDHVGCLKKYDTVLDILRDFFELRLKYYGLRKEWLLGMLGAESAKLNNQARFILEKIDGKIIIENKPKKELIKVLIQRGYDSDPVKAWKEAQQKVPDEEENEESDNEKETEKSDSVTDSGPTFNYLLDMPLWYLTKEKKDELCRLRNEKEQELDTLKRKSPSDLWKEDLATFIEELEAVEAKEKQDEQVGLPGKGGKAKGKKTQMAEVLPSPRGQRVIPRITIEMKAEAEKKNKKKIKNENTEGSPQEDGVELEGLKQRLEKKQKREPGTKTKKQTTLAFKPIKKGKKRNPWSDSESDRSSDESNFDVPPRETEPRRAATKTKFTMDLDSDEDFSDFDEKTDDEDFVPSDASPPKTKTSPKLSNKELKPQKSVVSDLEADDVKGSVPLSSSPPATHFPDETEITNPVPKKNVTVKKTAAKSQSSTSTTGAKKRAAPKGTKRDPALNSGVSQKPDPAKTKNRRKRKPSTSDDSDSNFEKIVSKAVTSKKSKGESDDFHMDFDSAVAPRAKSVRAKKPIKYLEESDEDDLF

Active and inactive are the calls of the source. The rule behind the calls is not given here.

Turning to `C=C(C(=O)O)[C@@H]1CC[C@@H]2[C@]3(CC[C@]4(C)[C@@H]([C@H](C)CC(=O)C=C(C)C)CC[C@@]24C)C[C@]13CCC(=O)O`, the selectivity ratio in data set [1] is greater than 7. Besides, the EC50 with Lu1 was greater than 10 µM; in the data set with HEK293, greater than 10 µM; with P388, greater than 10 µM; in [2] it was greater than 10 µM; in the data set with Col2, greater than 10 µM; in data set [6], less than 8.3 µM. Besides, the EC50 with MCF7 and in the data set on KB was greater than 10 µM throughout. In addition, the inhibition in data set [3] amounted to 88.1%. Further, the IC50 in data set [4] stood at 57.7 µM; in [5] it was 68.7 µM.
For `COc1cc([C@@H]2c3cc4c(cc3[C@@H](O[C@@H]3O[C@@H]5CO[C@@H](C)O[C@H]5[C@H](O)[C@H]3O)[C@H]3COC(=O)[C@H]23)OCO4)cc(OC)c1O`, the inhibition in data set [7] came out at 59%.
`CC(C)CC(=O)C[C@@H](C)[C@H]1CC[C@@]2(C)[C@@H]3CC[C@H]4[C@](C)(C(=O)O)[C@@H](O)CC[C@@]45C[C@@]35CC[C@]12C` (relative stereo): the selectivity ratio in data set [1] amounted to 1.2. The EC50 in the data set on Lu1 is greater than 10 µM; with HEK293, greater than 10 µM; in the data set with P388, 6.8 µM; in [2], greater than 10 µM; in the data set with Col2, greater than 10 µM; in data set [6] it was 62.7 µM. Further, the EC50 with MCF7 and with KB was greater than 10 µM each time. Further, the inhibition result in [7] is “Active”. Besides, the inhibition in data set [3] was determined as 1.9%. Besides, the IC50 in data set [4] stood at 72.5 µM.
Turning to `C=C1C(=O)O[C@@H]2C[C@@H]3[C@]4(CC[C@]5(C)[C@@H]([C@H](C)CC(=O)C=C(C)C)CC[C@@]35C)C[C@]4(CCC(=O)O)[C@H]12` (relative stereo), the EC50 in the data set on Lu1 was greater than 10 µM; with HEK293, 5.2 µM; with P388, 2.9 µM; in [2], greater than 10 µM; with Col2 it was greater than 10 µM; in the data set on MCF7 it was 7.7 µM. Besides, in the data set on KB, the EC50 was found to be 7.3 µM. For the same molecule, the inhibition entry in data set [7] is “Active”. Further, the inhibition in data set [3] came out at 81.2%. Moreover, the half-maximal inhibitory concentration (IC50) in data set [4] was less than 8.1 µM; in [5], 85.7 µM.
With `C=C1C(=O)O[C@@H]2C[C@@H]3[C@]4(CC[C@]5(C)[C@@H]([C@H](C)CC(=O)CC(C)(C)O)CC[C@@]35C)C[C@]4(CCC(=O)OC)[C@H]12` (relative stereo), the EC50 in the data set on Lu1 was 7.2 µM; in the data set with HEK293, 4.1 µM; in the data set on P388, 1.4 µM; in [2] it was 5.8 µM; with Col2, 6.2 µM; in the data set with MCF7 it was 5.2 µM. The EC50 in the data set on KB was found to be 6.8 µM. In addition, in data set [7], the inhibition entry is “Active”. In data set [3], the inhibition stood at 35.9%. Besides, in data set [4], the IC50 was less than 15.2 µM.
Take `C=C(C(=O)O)[C@@H]1CC[C@@H]2[C@]3(CC[C@]4(C)[C@@H]([C@H](C)CC(=O)C=C(C)C)CC[C@@]24C)C[C@]13CCC(=O)OC` (relative stereo): the selectivity ratio in data set [1] was 1.6. Besides, the EC50 with Lu1 was greater than 10 µM; in the data set with HEK293, greater than 10 µM; in the data set with P388, greater than 10 µM; in data set [2], greater than 10 µM; in the data set with Col2, greater than 10 µM; in data set [6] it was 43 µM. Further, the EC50 in the data set on MCF7 and in the data set with KB was greater than 10 µM throughout. Moreover, the inhibition in data set [3] amounted to 63.7%. Moreover, the IC50 in data set [4] is 69.5 µM.
For the molecule `C=C1COC(=O)CC[C@]23C[C@]24CC[C@]2(C)[C@@H]([C@H](C)CC(=O)C=C(C)C)CC[C@@]2(C)[C@@H]4CC[C@@H]13` (relative stereo), the selectivity ratio in data set [1] was greater than 3.4. Besides, the EC50 with Lu1 is greater than 10 µM; with HEK293, greater than 10 µM; with P388, greater than 10 µM; in [2] it was greater than 10 µM; with Col2, greater than 10 µM; in [6] it was 41.3 µM. Further, the EC50 in the data set on MCF7 and in the data set with KB was greater than 10 µM each time. In addition, the inhibition in data set [3] came to 11.6%. Also, in [4], the IC50 is greater than 138 µM.
On to `CC(C)CC(=O)C[C@@H](C)[C@H]1CC[C@@]2(C)[C@@H]3CC[C@H]4[C@](C)(C(=O)O)[C@@H](O)C[C@H](O)[C@@]45C[C@@]35CC[C@]12C` [CARINATIN A], for which the selectivity ratio in [1] came to 1.8. Moreover, the EC50 in the data set on Lu1 was greater than 10 µM; with HEK293, greater than 10 µM; with P388 it was greater than 10 µM; in data set [2], greater than 10 µM; with Col2 it was greater than 10 µM; in data set [6], 15.4 µM. In addition, the EC50 in the data set on MCF7 and in the data set on KB was greater than 10 µM throughout. Besides, the inhibition in data set [3] came out at 6%. Further, the IC50 in data set [4] worked out at 27 µM.
With `C=C(CO)[C@@H]1CC[C@@H]2[C@H](CC[C@]3(C)[C@@H]([C@H](C)CC(=O)C=C(C)C)CC[C@@]23C)C[C@]12CCC(=O)O2` [CARINATIN G], the selectivity ratio in data set [1] came to 3.4. The EC50 in the data set on Lu1 is greater than 10 µM; in the data set on HEK293 it was greater than 10 µM; in the data set on P388, 4.9 µM; in data set [2], greater than 10 µM; with Col2, greater than 10 µM; in [6], 13.4 µM. The EC50 in the data set on MCF7 and in the data set on KB was greater than 10 µM each time. For the same molecule, the inhibition entry in [7] was “Active”. In data set [3], the inhibition came to 25.5%. Also, in [4], the 50% inhibitory concentration (IC50) was found to be 46 µM.
Consider `Cc1c2ccncc2c(C)c2c1[nH]c1ccccc12` [ELLIPTECINE], for which the EC50 in the data set on Lu1 came out at 1.1 µM; in the data set on HEK293 it was 1.9 µM; in the data set on P388 it was 1.9 µM; in data set [2], 2.2 µM; in the data set with Col2, 2.2 µM; in the data set with MCF7 it was 2.3 µM. Besides, the EC50 with KB worked out at 2.2 µM.
For `COc1cc2c(ccc3c4cc(OC)c(OC)cc4c[n+](C)c23)cc1O` [FAGARONINE], in data set [5], the 50% inhibitory concentration (IC50) came out at 26.5 µM.
For `C=C1C(=O)O[C@@H]2C[C@@H]3[C@]4(CC[C@]5(C)[C@@H]([C@H](C)CC(=O)C=C(C)C)CC[C@@]35C)C[C@]4(CCC(=O)OC)[C@H]12` [SECAUBRYOLIDE], the EC50 was 5 µM with Lu1; 3.2 µM in the data set on HEK293; 1 µM with P388; 4.6 µM in data set [2]; 5.8 µM in the data set on Col2; 4.2 µM in the data set with MCF7. The EC50 in the data set with KB came to 2 µM. For the same molecule, the inhibition entry in data set [7] was “Active”. Also, the inhibition in data set [3] was determined as 0.4%. For the same molecule, the IC50 in data set [4] is less than 7.9 µM.
As for `Cc1cn([C@H]2C[C@H](N=[N+]=[N-])[C@@H](CO)O2)c(=O)[nH]c1=O` [ZIDOVUDINE], in data set [4], the IC50 was greater than 10000 µM. In addition, the EC50 in data set [6] was 0.00395 µM.
